Here are results for 17 compounds from PubChem BioAssay AID2060606 (Molecular Pharmacology Branch, DTP, NCI, 2025).

The test concerns 922993-354-T-J3-PDC complex spheroids, viability, % test/control. The experiment in a line: Anticancer human tumor 922993-354-T-J3-PDC patient-derived endometrial carcinoma cell line growth inhibition [CLK]. To be noted: for viability, T/C: stronger effect = lower value. The source says:
A high-throughput screen of multi-cell type tumor spheroids was designed to identify active combinations of […] and targeted small molecules. Complex spheroids include a stromal component modeled by human endothelial cells (HUVEC) and fibroblasts modeled by human mesenchymal stem cells (MSCs). The concentration ranges selected for each drug and investigational agent were based upon clinically achievable concentrations if the clinical Cmax of the agent was known.
Compounds. The drugs and investigational agents: cirtuvivint (SM08502; NSC835563), CC-671 (NSC850746), vemurafenib (NSC761431), tapotoclax (NSC804041), sotorasib (NSC818433), adagrasib (NSC831453), MRTX-1133 (NSC836407), BAY2416964 (NSC825713), copanlisib (NSC816437), inavolisib (NSC800729), abemaciclib (NSC768073), osimertinib (NSC779217), entinostat (NSC756642), eltanexor (KPT-8602, NSC794443), venetoclax (NSC766270), ceralasertib (NSC777638), bortezomib (NSC756655), olaparib (NSC753686), talazoparib (NSC767125), alisertib (NSC759677), peposertib (NSC802822), gemcitabine (NSC613327), 5-fluorouracil (NSC19893), SN-38 (NSC673596), oxaliplatin (NSC266046), paclitaxel (NSC125973), and doxorubicin (NSC123127), were obtained from the National Cancer Institute (NCI) Developmental Therapeutics Program Chemical Repository. The FDA-approved anticancer drug set is available from the Developmental Therapeutics Program at https://dtp.cancer.gov/organization/dscb/obtaining/available plates.htm. […] The stock solutions were prepared in dimethyl sulfoxide (DMSO, Sigma-Aldrich, St. Louis, MO, cat. D2650), except for the platinum complexes which were prepared in saline (Quality Biological, Gaithersburg, MD, cat. 114-055-101), at 800-fold the tested concentration and stored at -70 degrees C prior to their use. All drugs and investigational agents were tested over a range starting from a high concentration at or near the clinical Cmax and decreasing in half-log increments. If the clinical Cmax for an agent had not been determined, the highest concentration tested was 10 microM.
Cell Culture. All cells were maintained in an incubator at 37 degrees C and 5% CO2 with 95% humidity. The PDC lines were cultured according to standard operating procedures established by the NCI PDMR. Briefly, all PDCs were thawed and cultured in Matrigel-coated flasks prepared with a working solution of 1X Ham's F-12 nutrient mix, without supplementation (Invitrogen, Waltham, MA, cat. 11765054), 100 U/mL penicillin-streptomycin (Invitrogen, cat. 15140122), and 2.5% Matrigel (Corning Inc., Corning, NY, cat. 354248) for the first three passages. The 947758-054-R-J2-PDC line was cultured in 6B/Colon 1A media, which includes advanced DMEM/F-12 (Thermo Fisher Scientific, cat. 12634028), 10 mM HEPES (Thermo Fisher Scientific, cat. 15630080), 1X GlutaMAX supplement (Thermo Fisher Scientific, cat. 35050061), 0.1 mg/mL primocin (InvivoGen, cat. ant-pm-2), 10% defined fetal bovine serum, heat inactivated (HyClone Laboratories Inc., cat. SH30070.03HI), 1.25 mM N-Acetyl-L-cysteine (Sigma-Aldrich, cat. A9165), 10 mM nicotinamide (Sigma-Aldrich, cat. N0636), 1X B-27 supplement (Thermo Fisher Scientific, cat. 17504044), 1X N-2 supplement (Thermo Fisher Scientific, cat. 17502048), and 10 microM Y-27632 dihydrochloride (Tocris Bioscience, cat. 1254). The 876862-298-R-J1-PDC was cultured in 6E media, which includes all 6B/Colon 1A media components plus 50% L-WRN conditioned media (ATCC, cat. CRL-3276), 50 ng/mL recombinant human EGF recombinant protein (hEGF; Thermo Fisher Scientific, cat. PHG0311), 10 ng/mL recombinant human fibroblast growth factor 10 (hGFG-10; PeproTech, cat. 100-26), 1 ng/mL recombinant human fibroblast growth factor 2 (hFGF-2; PeproTech, cat. 100-18B), and 1 µM prostaglandin E2 (PGE2; Tocris, cat. 2296). The 227483-062-R1-J1-PDC line was cultured in Panc media, containing all 6E components except hFGF-2, with the addition of 500 nM SB-431542 (Selleckchem, cat. S1067) and 10 nM gastrin (Tocris, cat. 3006). […]

Structures are written as SMILES. Where “and” joins values, the source holds several entries; their conditions need not be identical. Equal entries are not always repeated.
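Note: spheroids exposed to the agents for 7 days before readout.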

One may read the viability, T/C as the ratio of treated to control. A word on the IC50: it is the concentration that inhibits the measured activity by half. As for `C#Cc1c(F)ccc2cc(O)cc(-c3ncc4c(N5CC6CCC(C5)N6)nc(OCC56CCCN5CC(F)C6)nc4c3F)c12` (stereo not drawn), the viability, T/C is 99.4% and 98.9% (compound 0.0316 µM); 82% and 83% (compound 0.1 µM); 95.2% and 109% (compound 0.316 µM); 93% and 94% (compound 1 µM); 98.1% and 104% (compound 3.16 µM); 95.9% and 101% (compound 10 µM). For the same compound, the IC50 (curve of compound) was over 10000 nM.
Turning to `C=C(F)C(=O)N1CCN(c2nc(OCC3CCCN3C)nc3c2CCN(c2cccc4cccc(Cl)c24)C3)CC1CC#N` (stereo not drawn), the viability, T/C was 96.9% and 91.5% (compound 0.0316 µM); 97.8% and 100% (compound 0.1 µM); 93.3% and 104% (compound 0.316 µM); 91.2% and 92% (compound 1 µM); 79.4% and 67.9% (compound 3.16 µM); 2.9% and 0.21% (compound 10 µM). Moreover, the IC50 (curve of compound) was 4900 nM and 4280 nM.
As for `C=CC(=O)N1CCN(c2nc(=O)n(-c3c(C)ccnc3C(C)C)c3nc(-c4c(O)cccc4F)c(F)cc23)C(C)C1` (stereo not drawn), the viability, T/C was 101% and 104% (compound 0.0316 µM); 94.5% and 105% (compound 0.1 µM); 104% and 92% (compound 0.316 µM); 105% and 99.2% (compound 1 µM); 92.5% and 111% (compound 3.16 µM); 93% and 93.6% (compound 10 µM). The IC50 (curve of compound) is over 10000 nM.
For the compound `C=CC(=O)Nc1cc(Nc2nccc(-c3cn(C)c4ccccc34)n2)c(OC)cc1N(C)CCN(C)C`, the viability, T/C was 93.6% and 122% (compound 0.000949 µM); 92.5% and 98.6% (compound 0.003 µM); 60.9% and 98.1% (compound 0.00949 µM); 97.8% and 85.3% (compound 0.03 µM); 90.1% and 94.2% (compound 0.0949 µM); 72.3% and 86.4% (compound 0.3 µM). In addition, the IC50 (curve of compound) is over 300 nM.
As to `CC(C)CC(NC(=O)C(Cc1ccccc1)NC(=O)c1cnccn1)B(O)O` (stereo not drawn), the viability, T/C was 91.1% and 99.8% (compound 0.000949 µM); 85.1% and 72.4% (compound 0.003 µM); 30.7% and 48.4% (compound 0.00949 µM); 2.06% and 11.1% (compound 0.03 µM); 0.41% and 2.23% (compound 0.0949 µM); 0.17% and 0.49% (compound 0.3 µM). Also, the IC50 (curve of compound) was 6.31 nM and 7.44 nM.
On to `CC(CO)NC(=O)c1cc(-c2ccc(Cl)cc2)nn(-c2cnn(C)c2)c1=O` (stereo not drawn), for which the viability, T/C is 107% and 97.1% (compound 0.0316 µM); 106% and 87.2% (compound 0.1 µM); 98% and 86% (compound 0.316 µM); 97.1% and 81.7% (compound 1 µM); 102% and 95.1% (compound 3.16 µM); 74.8% and 64.1% (compound 10 µM). Further, the IC50 (curve of compound) is over 10000 nM.
On to `CC(Nc1ccc2c(c1)OCCn1cc(N3C(=O)OCC3C(F)F)nc1-2)C(N)=O` (stereo not drawn), for which the viability, T/C by setting is: (compound 0.0316 µM) 115% and 99.3%; (compound 0.1 µM) 107% and 93.8%; (compound 0.316 µM) 84.6% and 77.5%; (compound 1 µM) 73.1% and 70.7%; (compound 3.16 µM) 28.4% and 49%; (compound 10 µM) 22.1% and 34.3%. Besides, the concentration for half-maximal inhibition (IC50) (curve of compound) was 1790 nM and 3330 nM.
On to `CC1(C)CCC(CN2CCN(c3ccc(C(=O)NS(=O)(=O)c4ccc(NCC5CCOCC5)c([N+](=O)[O-])c4)c(Oc4cnc5[nH]ccc5c4)c3)CC2)=C(c2ccc(Cl)cc2)C1`, for which the viability, T/C (compound 0.0316 µM) was 96.7% and 84.1%; the viability, T/C (compound 0.1 µM) is 90.2% and 99.4%; the viability, T/C (compound 0.316 µM) was 110% and 101%; the viability, T/C (compound 1 µM) is 123% and 95.5%; the viability, T/C (compound 3.16 µM) is 85.6% and 121%; the viability, T/C (compound 10 µM) is 36.7% and 82.9%. The IC50 (curve of compound) was 7310 nM and > 10000 nM.
`CCCS(=O)(=O)Nc1ccc(F)c(C(=O)c2c[nH]c3ncc(-c4ccc(Cl)cc4)cc23)c1F`: the viability, T/C by setting is: (compound 0.0316 µM) 113% and 92.8%; (compound 0.1 µM) 79.7% and 76.8%; (compound 0.316 µM) 97.7% and 113%; (compound 1 µM) 111% and 94.1%; (compound 3.16 µM) 65.2% and 95.7%; (compound 10 µM) 59% and 65.5%. Besides, for the setting “curve of compound”, the IC50 was over 10000 nM.
With `CCN1CCN(Cc2ccc(Nc3ncc(F)c(-c4cc(F)c5nc(C)n(C(C)C)c5c4)n3)nc2)CC1`, the viability, T/C is, setting by setting: (compound 0.00316 µM) 94.4% and 96.9%; (compound 0.01 µM) 91.2% and 85.8%; (compound 0.0316 µM) 94.2% and 84.1%; (compound 0.1 µM) 99.8% and 93.6%; (compound 0.316 µM) 72% and 73.3%; (compound 1 µM) 59.6% and 50.1%. For the same compound, the IC50 (curve of compound) was over 1000 nM.
Regarding `CCc1c2c(nc3ccc(O)cc13)-c1cc3c(c(=O)n1C2)COC(=O)[C@]3(O)CC`, the viability, T/C (compound 0.00316 µM) is 84.6% and 97.6%; the viability, T/C (compound 0.01 µM) was 38% and 69.2%; the viability, T/C (compound 0.0316 µM) was 12.8% and 21.2%; the viability, T/C (compound 0.1 µM) was 13.1% and 16%; the viability, T/C (compound 0.316 µM) was 17% and 25.4%; the viability, T/C (compound 1 µM) is 22% and 27.1%. Besides, for the setting “curve of compound”, the IC50 was 7.43 nM and 16.1 nM.
`CNC(=O)c1ccc(Nc2nc(OC3CCCC3)c3c(-c4ccc5nc(C)oc5c4)c[nH]c3n2)c(OC)c1`: the viability, T/C was 106% [middle of 12 runs] (compound 0.0316 µM); 107% [middle of 12 runs] (compound 0.1 µM); 39.3% [middle of 12 runs] (compound 1 µM); 34.4% [middle of 12 runs] (compound 3.16 µM); 33.4% [middle of 12 runs] (compound 10 µM). Also, the IC50 (compound alone, run of 09/19/2023) is 557 nM [middle of 12 runs].
For the compound `COC1C=CCC(C)C(C)S(=O)(=O)NC(=O)c2ccc3c(c2)N(CC2CCC21)CC1(CCCc2cc(Cl)ccc21)CO3` (stereo not drawn), the viability, T/C was 99.2% and 106% (compound 0.0316 µM); 99.9% and 97.5% (compound 0.1 µM); 103% and 106% (compound 0.316 µM); 84.5% and 89.9% (compound 1 µM); 68.4% and 84% (compound 3.16 µM); 13.7% and 21.5% (compound 10 µM). Further, the IC50 (curve of compound) was 4570 nM and 5820 nM.
Consider `COc1c(OCCCN2CCOCC2)ccc2c3n(c(=NC(=O)c4cnc(N)nc4)nc12)CCN3`, for which the viability, T/C is 109% and 111% (compound 0.00316 µM); 89.1% and 90.3% (compound 0.01 µM); 75.1% and 91.2% (compound 0.0316 µM); 54.6% and 68.8% (compound 0.1 µM); 30.3% and 40.4% (compound 0.316 µM); 9.62% and 15.9% (compound 1 µM). For the same compound, for the setting “curve of compound”, the IC50 was 118 nM and 226 nM.
In the case of `Cn1ncnc1[C@H]1c2n[nH]c(=O)c3cc(F)cc(c23)N[C@@H]1c1ccc(F)cc1`, the viability, T/C runs as follows: (compound 0.000316 µM) 94.9% and 97.8%; (compound 0.001 µM) 80.7% and 87.4%; (compound 0.00316 µM) 104% and 100%; (compound 0.01 µM) 124% and 103%; (compound 0.0316 µM) 104% and 98.2%; (compound 0.1 µM) 75.3% and 72.6%. Besides, the IC50 (curve of compound) is over 100 nM.
In the case of `NC(=O)C(=Cn1cnc(-c2cc(C(F)(F)F)cc(C(F)(F)F)c2)n1)c1cncnc1`, the viability, T/C (compound 0.00949 µM) is 99% and 121%; the viability, T/C (compound 0.03 µM) was 107% and 106%; the viability, T/C (compound 0.0949 µM) was 64.8% and 96.1%; the viability, T/C (compound 0.3 µM) is 47.6% and 68.7%; the viability, T/C (compound 0.949 µM) was 46.4% and 56.8%; the viability, T/C (compound 3 µM) is 24.8% and 32.5%. For the same compound, for the setting “curve of compound”, the IC50 is 187 nM and 1170 nM.
For `Nc1ccccc1NC(=O)c1ccc(CNC(=O)OCc2cccnc2)cc1`, the viability, T/C (compound 0.0316 µM) was 105% and 111%; the viability, T/C (compound 0.1 µM) was 71.8% and 85.9%; the viability, T/C (compound 0.316 µM) is 95.8% and 95.2%; the viability, T/C (compound 1 µM) was 71.8% and 81.7%; the viability, T/C (compound 3.16 µM) is 64.9% and 70.1%; the viability, T/C (compound 10 µM) is 53.4% and 55.2%. Further, the IC50 (curve of compound) was over 10000 nM.
